Patent publication EP4796540A2, “N-SULFONAMIDE NITROGEN-CONTAINING FUSED HETEROCYCLIC COMPOUND, AND APPLICATION THEREOF” (priority 2023, dated 2025)

Assay: In vivo pharmacokinetic study in rats
Conditions: rat, plasma; SD rats (male), IV 1 mg/kg; read-out: Clint
Procedure: 1. Experimental purpose: To test the pharmacokinetics of compounds in SD rats. 2. Experimental instrument and materials: Animal: SD rats (male) Instrument: Intravenous injection: 40% HP-β-CD in water; intragastric administration: 0.2% HPC + 0.5% Tween80 in water. 6 male rats. Fasting treatment was performed in the evening before the administration, with free access to water. During the experiment, the rats were allowed to eat and drink freely, and administered by intravenous injection or gavage. After administration, the animal status was observed, and abnormal behaviors were recorded. Blood was collected via jugular vein puncture at 0.0833, 0.25, 1, 2, 4, 8, and 24 hours after intravenous injection; Blood was collected via jugular vein puncture at 0.25, 0.5, 1, 2, 4, 6, 8, and 24 hours after intragastric administration. 50 µL of plasma sample was taken and added with 500 µL of acetonitrile (containing dexamethasone as an internal standard) to precipitate proteins. The mixture was centrifuged at 4°C and 4000 rpm for 20 minutes, and 300 µL of the supernatant was taken and mixed with 300 µL of Watsons aqueous solution in a 96-well plate. […] Unknown samples were calculated by the standard curve. Pharmacokinetic parameters were calculated by the non-compartmental analysis model of WinNonlin 8.2 software and were presented in a report, including Clint, Cmax, AUC, etc. […]

[2H]C([2H])([2H])Oc1nc(C(=O)NS(C)(=O)=O)ccc1NCC#Cc1cc2c(N[C@@H]3CCN(C)C[C@@H]3F)cccn2c1CC(F)(F)F [Cpd-2, 5-((3-(8-(((3S,4R)-3-Fluoro-1-methylpiperidin-4-yl)amino)-3-(2,2,2-trifluoroethyl)indolizin-2-yl)prop-2-yn-1-yl)amino)-6-(methoxy-d3)-N-(methylsulfonyl)picolinamide]
clearance: 3.3 mL/min/kg
